One test deals with CD154 transcript. In words: RT-PCR of CD154 transcript in SLE T cells. The class given is cell-based, human. The text has this:
Because SLE T cells are often activated (D. T. Y. Yu et al., J. Exp. Med. 151, 91 (1980).), the up-regulation of CD154 and IL-10 and down-regulation of IFN-γ may reflect skewed gene expression due to enhanced recruitment of HDACs to the promoters of these genes. The resulting disequilibrium of acetylation might be expected to alter the chromatin structure of the promoters (R. D. Komberg and Y. Lorch, Curr. Opin. Gen. Dev. 9, 148 (1999)), thereby activating previously silenced genes while repressing expressed genes. To determine if TSA can down-regulate CD154 transcript expression, T cells from eight SLE subjects were treated with increasing concentrations of TSA over 18 hr.
T cells were cultured in the absence or presence of increasing concentrations of TSA for 18 hr in 5% CO2 at 37° C. RNA was isolated, cDNAs were prepared, and RT-PCR was performed as previously detailed (D. Laxminarayana, et al., J. Clin. Invest. 92, 2207 (1993)). The primers used were: […]
The reaction mixtures were subjected to 30 cycles of denaturation (94° C., 1 min) and annealing for 1 min at 53° C. (CD154), […] (GAPDH) and 55° C. (IL-10 and IFN-γ). Extension was for 2 min at 72° C. with a final extension of 7 min at 72° C. using a DNA thermal cycler (Perkin-Elmer).
When SLE T cells were activated with phorbol myristate acetate (PMA) and ionomycin (IO), CD154 mRNA content increased 100%, peaked at 3 hr, and waned thereafter (FIGS. 1C and 1D).

The subject of test [1] is acetylated histones H3 and H4 in the TGF-β1 promoter. In words: Chromatin immunoprecipitation (ChIP) assay, TGF-β1 gene promoter. The class given is cell-based, human. The text has this:
The effect of HDAC inhibition on the acetylation of H3 or H4 associated with the TGF-β1 gene promoter was examined using the chromatin immunoprecipitation (ChIP) assay in an attempt to determine if HDIs induce accumulation of acetylated histones in chromatin associated with the TGF-β1 promoter in SLE PBMCs but not in healthy normal controls. The study undertaken included immunoprecipitating formaldehyde cross-linked, sonicated chromatin fragments from vehicle- and HDI-treated cells using anti-acetyl H3 and H4 antibodies, respectively. The immunoprecipitated DNA released from the bound protein was analyzed by quantitative PCR. A series of primer sets encompassing the TGF-β1 gene from −1.4 kbp to +0.6 kbp relative to the start site of transcription were created (FIG. 6A). Approximately a 12- and 4-fold enhancement of acetylated histones H3 and H4, respectively, in the TGF-β1 promoter in SLE was observed (FIGS. 6B & 6C).
To determine whether this effect was selective for the TGF-β1 gene in SLE PBMCs, the level of histone acetylation in the glucose-6-phosphate dehydrogenase (G6PD) gene was also examined. As shown in FIGS. 6E & 6F, there was no change in the levels of acetylated histones H3 and H4 at the G6PD gene in SLE PBMCs.

Test [2] deals with IL-12 p35 and p40 transcripts. In words: IL-12 p35 and p40 transcripts in MRL/lpr splenocytes. The class given is cell-based, mouse. On the procedure:
In this study, the question of whether TSA down-regulates transcription of both IL-12 p35 and p40 subunit mRNA was investigated. […] Splenocytes were stimulated with LPS and IFN-γ for 6 or 18 hr. […] When splenocytes were preincubated with TSA or SAHA for 18 hr and then stimulated with LPS and IFN-γ IL-12 p35 and p40 transcripts were undetectable (FIGS. 9B–D).

A further test concerns MRL/lpr mice. In words: In vivo TSA in 12 wk MRL/lpr mice (0.5 mg/kg sc, 4 weeks). Further details: species or system mouse. As to the method: TSA was administered to MRL/lpr mice at 12 wks of age coinciding with the time of onset of clinical disease. TSA was given subcutaneously (sc) at a dose of 0.5 mg/kg dissolved in […]; control mice were given the vehicle alone (40 μl DMSO). Proteinuria was assessed as a measure of albumin in mg/mouse/day prior to the initial dose (at 12 wks of age) and after four wks of treatment (at 16 wks of age). […] After four weeks of treatment, nine mice in each group were sacrificed. At necropsy, the weight of the spleens were measured and sera was collected. […] IFN-γ was measured by ellispot assay in splenocytes isolated from vehicle or TSA treated mice.
TSA was administered to MRL/lpr mice at 12 wks of age at the time of onset of clinical disease. TSA was given subcutaneously (sc) at a dose of 0.5 mg/kg dissolved in 40 μl DMSO; control mice were given the vehicle alone (40 μl DMSO). After four weeks of treatment, nine mice in each group were sacrificed. One-half of one kidney was fixed in 10% formaldehyde/PBS, embedded in paraffin, and stained with hematoxylin and eosin. An examiner blinded to the treatment group quantified disease activity as follows: (a) Glomeruli were graded for hypercellularity (0–4), crescent formation (0–4), and inflammation (0–4). (b) The interstitium was graded for inflammation (0–4). Scores were additive (BALB/c mice historically receive scores of 0–0.5). Half of the second kidney was snap-frozen, embedded in OCT, frozen sections cut and analyzed for C3 deposition by immunofluorescence.
In determining whether TSA suppresses autoantibody production anti-dsDNA and anti GBM-auto-antibodies were measured.

Where [3] appears, read: 0.5 mg/kg sc, 4 weeks treatment.

As for `CC(/C=C/C(=O)NO)=C\[C@@H](C)C(=O)c1ccc(N(C)C)cc1` [TSA, Trichostatin A], the “up-regulation of CD154 transcript on PMA+IO activation” value in the test with CD154 transcript (SLE T cells preincubated with TSA 18 hr (1000 ng/ml), then PMA+IO to 24 hr, vs cells not exposed, P<0.001) was “significantly reduced”. Besides, the “GAPDH mRNA expression” value with CD154 transcript (SLE T cells, increasing TSA) is listed as “does not modify”. For the same compound, in the test on CD154 transcript (SLE T cells, increasing TSA (0–1000 ng/ml), 18 hr, relative to GAPDH), the “maximal inhibition of CD154 transcript” value stood at 60%. In addition, the “acetylated state of G6PD gene” value in test [1] (SLE PBMCs) was “does not change”. For the same compound, in test [1] (SLE PBMCs, ChIP), the “enhancement of acetylated histone H3 in the TGF-β1 promoter” value is about 12 fold and the “enhancement of acetylated histone H4 in the TGF-β1 promoter” value was about 4 fold. In addition, in test [1] (normal PBMCs treated with TSA), the “enhancement of acetylated histones H3 and H4 at the TGF-β1 promoter” value is “essentially no enhancement”. In addition, the “LPS and IFN-γ induced IL-12 p35 and p40 transcripts” value in test [2] (splenocytes from 10-wk old MRL/lpr mice preincubated 18 hr, stimulated 6 or 18 hr) is recorded as “undetectable”. The “TSA concentration that completely suppressed constitutive IL-12 p35 and p40 transcripts” value in test [2] (splenocytes from 24-wk MRL/lpr mice) is recorded as “above 100 ng/ml”. In addition, the “proteinuria (albumin)” value with MRL/lpr mice (0.5 mg/kg sc from 12 wks, after four wks, vs vehicle) is “prevented an increase in proteinuria”. Further, in the test with MRL/lpr mice (setting [3]), the “C3 deposition (kidney immunofluorescence)” value was “did not show change”; the “glomerulonephritis and renal score” value is on record as “significant reduction”. In addition, the “number of IFN-γ secreting cells (ellispot, splenocytes)” value in the test with MRL/lpr mice (0.5 mg/kg sc, four weeks) is given as “significant decrement”. The spleen weight result in the test with MRL/lpr mice (0.5 mg/kg sc, four weeks, vs vehicle) is “significantly decreased in weight”. Further, the overall health entry in the test with MRL/lpr mice (0.5 mg/kg sc, vs vehicle) was “signs of better overall health”. The “anti-dsDNA and anti GBM auto-antibodies” value in the test with MRL/lpr mice (TSA vs vehicle, 4 weeks treatment) is on record as “no significant change”.

Source of the values: patent publication US7271198B2, “Method of treating autoimmune diseases” (Wake Forest University, priority 2000, dated 2007).
